Entries after “also recorded” stand apart in the source; their conditions may differ.
Assays:
Type in all cases: cell-based
IGROV1 cells = assay: Treatment of parental and AKT-inhibitor-resistant IGROV1 ovarian cancer cells (FIGS. 7-9); settings: for potency in parental and resistant lines: all IGROV1 lines, FIG. 9
Method: (§1) The in vitro potency of the combinations of the compound of Example 2 with certain specific chemotherapeutic agents was measured using the CellTiterGlo® Luminescent Cell Viability Assay, commercially available from Promega Corp., Madison, Wis. This homogeneous assay method is based on the recombinant expression of Coleoptera luciferase (U.S. Pat. Nos. 5,583,024; 5,674,713; 5,700,670) and determines the number of viable cells in culture based on quantitation of the ATP present, an indicator of metabolically active cells (Crouch et al (1993) J. Immunol. Meth. 160:81-88; U.S. Pat. No. 6,602,677). The CellTiter-Glo® Assay was conducted in 96 or 384 well format, making it amenable to automated high-throughput screening (HTS) (Cree et al (1995) AntiCancer Drugs 6:398-404). The homogeneous assay procedure involves adding the single reagent (CellTiter-Glo® Reagent) directly to cells cultured in serum-supplemented medium. Cell washing, removal of medium and multiple pipetting steps are not required. The system detects as few as 15 cells/well in a 384-well format in 10 minutes after adding reagent and mixing.
The homogeneous “add-mix-measure” format results in cell lysis and generation of a luminescent signal proportional to the amount of ATP present. The amount of ATP is directly proportional to the number of cells present in culture. The CellTiterGlo® Assay generates a “glow-type” luminescent signal, produced by the luciferase reaction, which has a half-life generally greater than five hours, depending on cell type and medium used. Viable cells are reflected in relative luminescence units (RLU). The substrate, Beetle Luciferin, is oxidatively decarboxylated by recombinant firefly luciferase with concomitant conversion of ATP to AMP and generation of photons. The extended half-life eliminates the need to use reagent injectors and provides flexibility for continuous or batch mode processing of multiple plates. This cell proliferation assay can be used with various multiwell formats, e.g. 96 or 384 well format. Data can be recorded by luminometer or CCD camera imaging device. The luminescence output is presented as relative light units (RLU), measured over time.

LNCaP cells = assay: Dose response of AKT inhibitors in parental and AKT-inhibitor-resistant LNCaP cells (FIGS. 1-2, 6)
Method: Resistant clones to both inhibitors were derived from populations of cancer cells treated with increasing doses of AKT inhibitor over time. […] For MK2206, cells that are ˜40× less sensitive were cloned.
as §1
The homogeneous “add-mix-measure” format results in cell lysis and generation of a luminescent signal proportional to the amount of ATP present. The amount of ATP is directly proportional to the number of cells present in culture. The CellTiterGlo® Assay generates a “glow-type” luminescent signal, produced by the luciferase reaction, which has a half-life generally greater than five hours, depending on cell type and medium used. Viable cells are reflected in relative luminescence units (RLU). […] Data can be recorded by luminometer or CCD camera imaging device. The luminescence output is presented as relative light units (RLU), measured over time.

pS6 = assay: Western blot of AKT inhibitor dosed LNCaP cells, downstream pS6 (FIGS. 3-4)
From the text: (§2) FIGS. 3-4 show Western blot analysis of AKT inhibitor dosed to cancer cells (LNCaP cells).

Akt = assay: Western blot of AKT inhibitor dosed LNCaP cells, Akt phosphorylation and inhibitor binding (FIGS. 3-4); settings: MK2206 resistant LNCaP cells vs parental lines
From the text: as §2

Compound: CC(C)NC[C@@H](C(=O)N1CCN(c2ncnc3c2[C@H](C)C[C@H]3O)CC1)c1ccc(Cl)cc1 [GDC-0068, (S)-2-(4-chlorophenyl)-1-(4-((5R,7R)-7-hydroxy-5-methyl-6,7-dihydro-5H-cyclopenta [d]pyrimidin-4-yl)piperazin-1-yl)-3-(isopropylamino)propan-1-one]
- resistance of GDC0068-resistant cells to the inhibitor (IGROV1 cells; IGROV1 cells resistant to GDC0068, GDC-0068 compared with MK2206): more resistant to GDC-0068 than MK2206
- sensitivity of MK2206-resistant cells to the inhibitor (LNCaP cells; MK2206-resistant LNCaP cells, FIG. 6): still sensitive; also recorded: remain sensitvie
- inhibition of downstream pS6 (pS6; GDC-0068 resistant LNCaP cells): less potent

Compound: Cc1c(CN2CCN(C(=O)[C@H](C)O)CC2)sc2c(N3CCOCC3)nc(-c3cnc(N)nc3)nc12 [GDC-0980]
- potency in parental and resistant lines (IGROV1 cells): remain potent

Compound: NC1(c2ccc(-c3nc4ccn5c(=O)[nH]nc5c4cc3-c3ccccc3)cc2)CCC1 [MK2206, 8-[4-(1-aminocyclobutyl)phenyl]-9-phenyl-1,2,4-triazolo[3,4-f][1,6]naphthyridin-3(2H)-one]
- resistance to allosteric inhibition (IGROV1 cells; IGROV1 cells resistant to GDC0068 and cells resistant to MK2206): equally resistant
- resistance of GDC-0068 selected cells to the inhibitor (LNCaP cells; GDC-0068 selected LNCaP cells, FIG. 6): similarly resistant
- fold less sensitive to MK2206, resistant clones vs parental (LNCaP cells; LNCaP clones derived under increasing doses of MK2206): ~40 ×
- inhibition of Akt phosphorylation (Akt): failed to inhibit Akt phosphorylation
- inhibition of pS6 (pS6; MK2206 resistant LNCaP cells): lost the inhibition of pS6

Compound: CS(=O)(=O)N1CCN(Cc2cc3nc(-c4cccc5[nH]ncc45)nc(N4CCOCC4)c3s2)CC1 [GDC-0941]
- potency in parental and resistant lines (IGROV1 cells): remain potent

From patent US9994913B2, “Methods and compositions for detecting and treating drug resistant AKT mutant” (Genentech, Inc., priority 2013, dated 2018)
